The values below come from patent publication US6630464B1, “Cyclin dependent kinase (CDK)4 inhibitors and their use for treating cancer” (The United States of America as represented by the …, priority 1997, dated 2003).

Where two headings read alike, the source gives them in different places. Some results are limits rather than exact numbers.

Assay [1] addresses CDK4:cyclin D1 (Homo sapiens, UniProt P11802). Put plainly: In vitro kinase assay, CDK4:cyclin D1, GST-Rb substrate. To be noted: for CDK4 kinase inhibitory potency compared with parent compounds: parents 3-ATA and Compound 6.
Description: In vitro kinase assay. Seventy-two hours after infection of 1×10^7 Sf9 cells with baculovirus containing a human CDK gene and/or a cyclin gene, cells were lysed in 250 μl of lysis buffer [50 mM HEPES (pH 7.5), 10 mM MgCl2, 1 mM DTT, 5 ig/ml of aprotinin, 5 μg/ml of leupeptin, 0.1 mM NaF, 0.2 mM phenylmethylsulfonyl fluoride (PMSF), and 0.1 mM sodium orthovanadate], centrifuged, and lysates stored at −70° C. Five microliters of CDK:cyclin lysate were mixed with test compounds in 40 μl of kinase buffer (200 mM Tris-HCl, pH 8.0, 100 mM MgCl2, 10 mM EGTA) and incubated at 30° C. for 30 min. About 400 ng of purified GST-Rb fusion protein and 5 μCi of γ-[^32P]ATP were added to the mixture and incubated at 30° C. for 15 min. Reactions were stopped by the addition of 250 μl of IP buffer (50 mM Tris-HCl, pH 8.0; 150 mM NaCl, 0.5% NP-40) and 15 μl glutathione sepharose. After one hour incubation at 4° C., sepharose beads were washed four times with IP buffer, mixed with 18 μl of 2×sample buffer and electrophoresed on an 8% Tris-glycine gel (Novex, San Diego, Calif.) at 125 V for 90 min. Equal recovery of GST-Rb fusion protein was confirmed by Coomassie blue staining prior to autoradiography.
These compounds were assessed for CDK4:cylin D kinase inhibitory activity using baculovirus-expressed human CDK4 and cyclin D1, and a GST-Rb fusion protein as substrate.
Assay [2] concerns the target T1, CDC2:cyclin A (Homo sapiens, UniProt P06493).
T1 construct: made in house; host or cells: Sf9 insect cells, baculovirus; unpurified lysate
Put plainly: In vitro kinase assay, CDC2:cyclin A. Format: biochemical. As to conditions: for Ratio CDC2A:CDK4: (IC50 CDC2)/(IC50 CDK4). The text has this:
(§1) Characterization of 3-ATA. To examine the specificity of 3-ATA inhibitory activity for CDK4:cyclin D1 kinase, we performed in vitro kinase assays using baculovirus-expressed human CDC2:cyclin A, CDK2:cyclin A, and CDK2:cyclin E complexes.

The target in assay [3] is T2, CDK2:cyclin A (Homo sapiens, UniProt P24941).
T2 construct: made in house; host or cells: Sf9 insect cells, baculovirus; unpurified lysate
Put plainly: In vitro kinase assay, CDK2:cyclin A. Format: biochemical. To be noted: for Ratio CDK2/A:CDK4: IC50 ratio, CDK4 as denominator.
Description: as §1

In assay [4] the target is T3, CDK2:cyclin E (Homo sapiens, UniProt P24941).
T3 construct: made in house; host or cells: Sf9 insect cells, baculovirus; unpurified lysate
Put plainly: In vitro kinase assay, CDK2:cyclin E. Format: biochemical. As to conditions: for Ratio CDK2/E:CDK4: IC50 ratio, CDK4 as denominator.
Description: as §1

Assay [5] concerns the target T4, CDK4 (Homo sapiens, UniProt P11802).
T4 construct: made in house; host or cells: CDK4 and cyclin D1: Sf9 cells, baculovirus, [35S]methionine-labelled cleared lysate; GST-p16: E. coli DH5α
Put plainly: CDK4 binding assay (GST-p16 binding to CDK4). On the procedure: CDK4 binding assay. Sf9 cells (1×10^7) were co-infected with baculovirus containing a cloned human CDK4 gene and/or a cyclin D1 gene in 12.5 ml of Grace's insect medium (Paragon, Baltimore, Md.) containing 10% FBS. After 40 h, cells were washed and placed in 5 ml of methionine-free medium containing 200 μCi/ml of [^35S]methionine (1000 Ci/mmole) for 4 h, followed by lysis in 250 μl. Cleared cell lysate (10 μl) was incubated with 400 ng of wildtype or mutant GST-p16 fusion proteins using the same conditions as the in vitro kinase assay. […] The gel was stained using Coomassie blue, dried, and autoradiography was performed. […] To test the effect of compounds on p16 binding to CDK4, 100 μM of each compound was incubated with CDK4:cyclin D1 lysate for 30 min prior to adding GST-p16 fusion protein.

Chain of CDK4:cyclin D1 (P11802 whole entry): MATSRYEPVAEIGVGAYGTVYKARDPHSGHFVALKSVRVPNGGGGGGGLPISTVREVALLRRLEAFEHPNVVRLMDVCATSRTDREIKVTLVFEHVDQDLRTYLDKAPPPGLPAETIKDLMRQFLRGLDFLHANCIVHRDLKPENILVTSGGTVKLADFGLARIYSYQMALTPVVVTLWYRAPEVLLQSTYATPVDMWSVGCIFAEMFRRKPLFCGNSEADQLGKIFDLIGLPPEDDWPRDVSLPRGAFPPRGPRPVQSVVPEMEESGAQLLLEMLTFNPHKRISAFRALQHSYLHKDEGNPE
Chain of CDK4:cyclin D1 (P24385 whole entry partner): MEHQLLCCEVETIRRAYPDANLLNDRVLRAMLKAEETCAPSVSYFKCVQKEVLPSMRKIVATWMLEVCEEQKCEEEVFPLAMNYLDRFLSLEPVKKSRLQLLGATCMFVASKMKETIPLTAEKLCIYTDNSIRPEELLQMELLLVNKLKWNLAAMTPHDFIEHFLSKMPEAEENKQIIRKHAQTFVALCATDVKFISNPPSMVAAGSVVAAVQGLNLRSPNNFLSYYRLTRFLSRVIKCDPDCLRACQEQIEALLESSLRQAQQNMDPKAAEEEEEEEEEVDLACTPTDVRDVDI
T4 sequence (P11802 whole entry): as the sequence (P11802 whole entry) above

For the compound `CCC/C=C/C=C/C(=O)O[C@H]1/C(=C/C(=O)OC)C[C@H]2C[C@H]([C@@H](C)O)OC(=O)C[C@H](O)C[C@@H]3C[C@H](OC(C)=O)C(C)(C)[C@](O)(C[C@@H]4C/C(=C/C(=O)OC)C[C@H](/C=C/C(C)(C)[C@]1(O)O2)O4)O3` [Bryostatin 1, reference compound], the “Inhibition of GST-Rb phosphorylation by CDK4:cyclin D1” value in assay [1] (concentrations up to 100 μM) was “no inhibitory activity”.
For `Nc1ccc2c(=S)c3ccccc3[nH]c2c1` [Compound 3, 3-Amino-10H-acridine-9-thione], the IC50 is 60 µM in assay [2], greater than 100 µM in assay [3], 80 µM in assay [4] and 6.8 µM in assay [1]. In addition, the “Ratio CDC2A:CDK4” value in assay [2] was 8.8; in assay [2] (listed as 3-ATA) it was “at least nine-fold higher”. The “Ratio CDK2/A:CDK4” value was greater than 14.7 in assay [3] and “at least nine-fold higher” in assay [3] (listed as 3-ATA). Besides, the “Ratio CDK2/E:CDK4” value is on record as 11.8 in assay [4] and “at least nine-fold higher” in assay [4] (listed as 3-ATA). Moreover, in assay [5] (100 μM compound), the “Decrease of binding of CDK4 to normal p16” value amounted to 70%. Moreover, in assay [1] (exogenous ATP 0 to 600 μM), the “Effect of exogenous ATP on inhibitory activity in CDK4 kinase assay” value is listed as “did not alter the inhibitory activity”.
Regarding `COc1ccc(OC)c2c(=S)c3ccccc3[nH]c12` [Compound 4, 1,4-Dimethoxy-10H-acridine-9-thione], in assay [2], the IC50 was greater than 100 µM and the “Ratio CDC2A:CDK4” value is given as greater than 45. In addition, in assay [2] (concentrations up to 100 μM), the “CDC2 kinase inhibitory activity” value is on record as “no CDC2 or CDK2 kinase inhibitory activity”. Also, in assay [3], the IC50 is greater than 100 µM and the “Ratio CDK2/A:CDK4” value is given as greater than 45. Further, in assay [3] (concentrations up to 100 μM), the “CDK2 kinase inhibitory activity (CDK2:cyclin A)” value is “no CDC2 or CDK2 kinase inhibitory activity”. In assay [4], the IC50 is greater than 100 µM and the “Ratio CDK2/E:CDK4” value is greater than 45. Moreover, in assay [4] (concentrations up to 100 μM), the “CDK2 kinase inhibitory activity (CDK2:cyclin E)” value is reported as “no CDC2 or CDK2 kinase inhibitory activity”. The “Inhibition of p16INK4A binding to CDK4” value in assay [5] (100 μM of each compound) is “did not inhibit”. Also, in assay [1], the IC50 worked out at 2.2 µM and the “CDK4 kinase inhibitory potency compared with parent compounds” value is recorded as “more potent CDK4 kinase inhibitors than the parent compounds”.
In assay [2], `O=C(CNc1ccc2c(=S)c3ccccc3[nH]c2c1)Nc1ccccc1-c1ccccc1NC(=O)CNc1ccc2c(=S)c3ccccc3[nH]c2c1` [Compound 5, 2,2′-Biphenyldiamine, bis[N,N′-[3-(amidonmethylamino)-10H-acridine-9-thione]]] had an IC50 of 70 µM. In assay [3], the IC50 is greater than 100 µM and the “Ratio CDK2/A:CDK4” value is on record as greater than 91. Further, in assay [4], the IC50 was greater than 100 µM and the “Ratio CDK2/E:CDK4” value is greater than 91. Besides, in assay [1], the IC50 came to 1.1 µM and the “CDK4 kinase inhibitory potency compared with parent compounds” value is “more potent CDK4 kinase inhibitors than the parent compounds”.
Consider `O=S1(=O)NN=C(NCc2ccc(F)cc2)c2ccccc21` [Compound 6, 4-(4-Fluorobenzylamino)-1,2,3-benzothiadiazine-1,1-dioxide], for which the IC50 in assay [2] is greater than 100 µM; in assay [3], greater than 100 µM; in assay [4], greater than 100 µM; in assay [1], 5 µM.
Consider `O=S1(=O)NNC(=NCc2ccc(Cl)c(Cl)c2)c2ccccc21` [NSC 645788], for which the IC50 in assay [1] (read-out: IC50 value CDK4/D1) stood at 17 µM.
Same read-out and setting: for `C[C@@H]1[C@]2(O[C@H]3C=C4[C@@H]5CC[C@H]6Cc7nc8c(nc7C[C@]6(C)[C@H]5C[C@@H](O)[C@]4(C)[C@]31O)C[C@@H]1CC[C@H]3C4=CC[C@@H]5[C@H](C)[C@@]6(OC[C@]45C(=O)C[C@@H]3[C@@]1(C)C8)OC(C)(C)C[C@H]6O)O[C@](C)(CO)C[C@H]2O` [cephalostatin 1, reference compound] the value was 20 µM.
